The target in the assay is T1, human GPR40 (Homo sapiens, UniProt O14842).
T1 construct: expressed in transfected cells
T1 sequence (O14842 whole entry): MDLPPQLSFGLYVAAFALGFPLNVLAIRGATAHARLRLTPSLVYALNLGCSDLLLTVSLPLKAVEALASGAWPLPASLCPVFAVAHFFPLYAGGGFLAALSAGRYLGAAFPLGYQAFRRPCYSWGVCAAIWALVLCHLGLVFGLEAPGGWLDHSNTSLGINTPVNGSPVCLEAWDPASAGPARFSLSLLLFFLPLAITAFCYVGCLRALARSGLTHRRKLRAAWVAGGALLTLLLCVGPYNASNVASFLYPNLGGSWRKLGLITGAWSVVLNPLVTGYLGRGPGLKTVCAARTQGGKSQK
Nature of the assay: Evaluation of human GPR40 agonist activity with increase in intracellular Ca2+ concentration as an index (FLIPR Tetra). The following applies: test compound 1 μM; CHO(dhfr-) cells stably expressing human GPR40; 100% = activity of 1 μM WO2009/048527 Example 99.2, 0% = DMSO. The assay is classed as cell-based. The gist of the method: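 CHO(dhfr-) cells stably expressing human GPR40, loaded with Calcium 5 dye in HEPES/HBSS buffer with 0.2% fatty acid-free BSA and probenecid, 1 h at 37° C. Test compound added at 1 μM final; fluorescence Ca2+ rise scaled to a reference agonist at 1 μM (100%) and DMSO (0%).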
Consider `COc1ccc(F)c(-c2ccc(OCc3cccc(C(CC(=O)O)C4CC4)c3)cc2C(F)C2(C#N)CCCC2)c1` (stereo not drawn) [Example 101, 3-(3-(((2-((1-cyanocyclopentyl)(fluoro)methyl)-2′-fluoro-5′-methoxybiphenyl-4-yl)oxy)methyl)phenyl)-3-cyclopropylpropanoic acid], for which the activation at 1 µM was determined as 106%.
In the case of `COc1ccc(F)c(-c2ccc(OCc3cccc(C(CC(=O)O)C4CCCCC4)c3)cc2CC(C)(C)C)c1` (stereo not drawn) [Example 40, 3-cyclohexyl-3-(3-(((2-(2,2-dimethylpropyl)-2′-fluoro-5′-methoxybiphenyl-4-yl)oxy)methyl)phenyl)propanoic acid], the activation at 1 µM is 114%.
For `COc1ccc(F)c(-c2ccc(OCc3cccc(C(CC(N)=O)CC(=O)O)c3)cc2CC(C)(C)C)c1` (stereo not drawn) [Example 83, 5-amino-3-(3-(((2′-fluoro-5′-methoxy-2-neopentyl-[1,1′-biphenyl]-4-yl)oxy)methyl)phenyl)-5-oxopentanoic acid], the activation at 1 µM came out at 34%.
Consider `COc1ccc(Cl)c(-c2ncc(OCc3cccc(C(CC(=O)O)C4CC4)c3)cc2CC(C)(C)C)c1` (stereo not drawn) [Example 59, 3-(3-(((6-(2-chloro-5-methoxyphenyl)-5-(2,2-dimethylpropyl)pyridin-3-yl)oxy)methyl)phenyl)-3-cyclopropylpropanoic acid], for which the activation at 1 µM came out at 115%.
With `CC(C)(C)Cc1cc(OCc2cccc(C(CC(=O)O)C3CC3)c2)cnc1-c1cccc(NS(C)(=O)=O)c1` (stereo not drawn) [Example 62, 3-cyclopropyl-3-(3-(((5-(2,2-dimethylpropyl)-6-(3-((methylsulfonyl)amino)phenyl)pyridin-3-yl)oxy)methyl)phenyl)propanoic acid], the activation at 1 µM was 4%.
As for `COc1ccc(F)c(-c2ccc(OCc3cc(C(CC(=O)O)C4CC4)ncn3)cc2CC(C)(C)C)c1` (stereo not drawn) [Example 31, 3-cyclopropyl-3-(6-(((2-(2,2-dimethylpropyl)-2′-fluoro-5′-methoxybiphenyl-4-yl)oxy)methyl)pyrimidin-4-yl)propanoic acid], the activation at 1 µM amounted to 108%.
Same read-out and setting: with `COc1ccc(F)c(-c2ccc(OCc3cccc(C(CC(=O)O)C4CC4)c3)cc2CC(C)(C)C#N)c1` (stereo not drawn) [Example 26, 3-(3-(((2-(2-cyano-2-methylpropyl)-2′-fluoro-5′-methoxybiphenyl-4-yl)oxy)methyl)phenyl)-3-cyclopropylpropanoic acid] the figure was 105%; with `COc1ccc(F)c(-c2ccc(C(F)Cc3cccc(CCC(=O)O)c3)nc2CC(C)(C)C)c1` (stereo not drawn) [Example 36, 3-(3-(2-(6-(2,2-dimethylpropyl)-5-(2-fluoro-5-methoxyphenyl)pyridin-2-yl)-2-fluoroethyl)phenyl)propanoic acid], 102%.
Same read-out and setting: then `CCCCCOc1ccc(F)c(-c2ncc(OCc3cccc(C(CC(=O)O)C4CC4)c3)cc2CC(C)(C)C)c1` (stereo not drawn) [Example 71, 3-cyclopropyl-3-(3-(((5-(2,2-dimethylpropyl)-6-(2-fluoro-5-(pentyloxy)phenyl)pyridin-3-yl)oxy)methyl)phenyl)propanoic acid], with 1%.
On to `COc1ccc(F)c(-c2ccc(OCc3cccc(C(CC(=O)O)C4CC4)c3)nc2CC(C)(C)C)c1` (stereo not drawn) [Example 6, sodium 3-cyclopropyl-3-(3-(((6-(2,2-dimethylpropyl)-5-(2-fluoro-5-methoxyphenyl)pyridin-2-yl)oxy)methyl)phenyl)propanoate], for which the “Human GPR40 agonist activity (increase in intracellular Ca2+ concentration)” value was determined as 98%.
The same measure, in the same setting: with `COc1ccc(F)c(-c2ccc(OCc3cccc(C(CC(=O)O)C4CC4C#N)c3)cc2CC(C)(C)C)c1` (stereo not drawn) [Example 90, 3-(2-cyanocyclopropyl)-3-(3-(((2′-fluoro-5′-methoxy-2-neopentyl-[1,1′-biphenyl]-4-yl)oxy)methyl)phenyl)propanoic acid] the figure was 107%.
Regarding `COc1ccc(F)c(-c2ccc(OCc3cccc(C(C#CC4CC4)CC(=O)O)c3)cc2CC(C)(C)C)c1` (stereo not drawn) [Example 77, 5-cyclopropyl-3-(3-(((2′-fluoro-5′-methoxy-2-neopentyl-[1,1′-biphenyl]-4-yl)oxy)methyl)phenyl)pent-4-ynoic acid], the activation at 1 µM turned out to be 101%.
Same read-out and setting: then `COc1ccc(F)c(-c2ccc(OCc3cccc(C(CCCC#N)CC(=O)O)c3)cc2CC(C)(C)C)c1` (stereo not drawn) [Example 89, 6-cyano-3-(3-(((2′-fluoro-5′-methoxy-2-neopentyl-[1,1′-biphenyl]-4-yl)oxy)methyl)phenyl)hexanoic acid], with 94%; and `CCC(C)(C)C(OC)c1cc(OCc2cccc(C(CC(=O)O)C3CC3)c2)ccc1-c1cc(OC)ccc1F` (stereo not drawn) [Example 109, 3-cyclopropyl-3-(3-(((2′-fluoro-5′-methoxy-2-(1-methoxy-2,2-dimethylbutyl)biphenyl-4-yl)oxy)methyl)phenyl)propanoic acid], with 119%.
The same measure, in the same setting: then `COc1ccc(F)c(-c2ccc(OCc3cc(C(CC(=O)O)C4CC4)ccn3)cc2CC(C)(C)C#N)c1` (stereo not drawn) [Example 27, 3-(2-(((2-(2-cyano-2-methylpropyl)-2′-fluoro-5′-methoxybiphenyl-4-yl)oxy)methyl)pyridin-4-yl)-3-cyclopropylpropanoic acid], with 119%.
On the same count and under the same terms, then `COc1ccc(F)c(-c2ccc(OCc3cccc(C(CC(=O)O)C4CC4)c3)cc2CC2(C#N)CC2)c1` (stereo not drawn) [Example 103, 3-(3-(((2-((1-cyanocyclopropyl)methyl)-2′-fluoro-5′-methoxybiphenyl-4-yl)oxy)methyl)phenyl)-3-cyclopropylpropanoic acid], with 119%; and `COc1ccc(F)c(-c2ccc(OCc3cccc(C(CC(=O)O)C(C)(C)C#N)c3)cc2CC(C)(C)C)c1` (stereo not drawn) [Example 84, 4-cyano-3-(3-(((2′-fluoro-5′-methoxy-2-neopentyl-[1,1′-biphenyl]-4-yl)oxy)methyl)phenyl)-4-methylpentanoic acid], with 90%.
On to `COc1ccc(F)c(-c2ccc(OCc3cccc(C(CC(=O)O)C4CC4)c3)cc2C2CC(C)(C)OC(C)(C)C2)c1` (stereo not drawn) [Example 96, 3-cyclopropyl-3-(3-(((2′-fluoro-5′-methoxy-2-(2,2,6,6-tetramethyltetrahydro-2H-pyran-4-yl)biphenyl-4-yl)oxy)methyl)phenyl)propanoic acid], for which the activation at 1 µM was determined as 140%.
As for `CC(C)(C)Cc1cc(OCc2cccc(C(CC(=O)O)C3CC3)c2)cnc1-c1cc(OCC(F)(F)F)ccc1F` (stereo not drawn) [Example 70, 3-cyclopropyl-3-(3-(((5-(2,2-dimethylpropyl)-6-(2-fluoro-5-(2,2,2-trifluoroethoxy)phenyl)pyridin-3-yl)oxy)methyl)phenyl)propanoic acid], the activation at 1 µM was -8%.
Still for that read-out and setting: then `COc1ccc(F)c(-c2ccc(OCc3cccc(C(CC(=O)O)C4CC4)c3)cc2CC2(C#N)CCCCC2)c1` (stereo not drawn) [Example 99, 3-(3-(((2-((1-cyanocyclohexyl)methyl)-2′-fluoro-5′-methoxybiphenyl-4-yl)oxy)methyl)phenyl)-3-cyclopropylpropanoic acid], with 93%; and `CC(C)(C)Cc1cc(OCc2cccc(C(CC(=O)O)C3CC3)c2)cnc1-c1ccc(OC(F)(F)F)cc1` (stereo not drawn) [Example 61, 3-cyclopropyl-3-(3-(((5-(2,2-dimethylpropyl)-6-(4-(trifluoromethoxy)phenyl)pyridin-3-yl)oxy)methyl)phenyl)propanoic acid], with 8%.

The record behind these values is patent US9382188B2, “Aromatic ring compound” (TAKEDA PHARMACEUTICAL COMPANY LIMITED, priority 2012, dated 2016).
